# Molecular target: P. falciparum 3D7A growth, LDH activity
# Assay: parasite LDH-based blood-stage antimalarial activity – strain 3D7A, LDH readout, dose response (AID 2060598)
Compound,"IC50 (restricted media, 72 h) [nM]",IC50 (standard media with serum) [nM]
N#Cc1c(N)n[nH]c1CCCNC(=O)c1ccc(Cl)c(S(=O)(=O)N2CCCC2)c1,50.1,631
O=C(Nc1ccc(N2CCCC2)nc1)N1CCN(c2cnccn2)CC1,79.4,2000
Cc1cc(Cl)ccc1OCC(=O)N1CCc2c(cnc(C)c2CNC(=O)c2ccc(=O)[nH]n2)C1,20,316
CCCOc1cncc(S(=O)(=O)c2ccc3c(c2)CCN(C2CCC2)CC3)c1,316,3980
O=C(CCCc1ncc(-c2ccccc2)o1)N1CCOC2CCCC21 (stereo unspecified),158,2000
Cc1nn(C2CCS(=O)(=O)C2)c(C)c1CN(C)C(=O)CN1C(=O)NC2(CCCCC2C)C1=O (stereo unspecified),63.1,631
O=C(CCCc1c[nH]c2ccccc12)N1CCN(c2ccc(N3CCOCC3)nn2)CC1,398,5010
Cc1cc(-c2cnc(N3CCn4c(nnc4C4CC4)C3)nc2-c2ccncc2)on1,100,1580
COc1ccc(N2CCN(C(=O)c3csc(Nc4ccccc4S(C)(=O)=O)n3)CC2)nc1,79.4,1000
O=C(COc1ccc(Br)cc1F)N1CCN(c2cnccn2)CC1,251,2510
O=C1CCCN1c1ccc(S(=O)(=O)N2CCN(S(=O)(=O)c3ccccc3)CC2)cc1,501,> 50100
COc1ccc2oc(C(=O)NC3CCC(Oc4ncccn4)CC3)cc2c1 (stereo unspecified),126,1260
N#Cc1cccc(NC(=O)CNc2ccccc2C(=O)NC2CC2)c1,39.8,398
CC(C)Oc1ccc(-c2nnc(Oc3cccc4c3CCN(CCC(N)=O)CC4)s2)cc1C#N,501,10000
Cc1cccc(-c2nn(Cc3ccc(C(=O)NCCCO)cc3)c(=O)cc2N2CCCC(CO)C2)c1 (stereo unspecified),794,7940
COc1ccc(-c2ccc(CNC(=O)c3cc(C(=O)NC(C)C)ccc3Cl)cc2)cn1,63.1,631
CCN(CC)c1ccc(C(=O)COc2ccc3c(c2)CCNCC3)cc1,63.1,1000

# Now from value to molecule:
"IC50 (restricted media, 72 h) [nM]",IC50 (standard media with serum) [nM],Compound
20,200,O=C(Nc1nnc(-c2ccccc2)s1)N1CCCN(c2ncccn2)CC1
31.6,501,Cc1ccc2nc(CCNC(=O)CCS(=O)(=O)c3ccc4c(c3)CC(=O)N4C)[nH]c2c1
794,10000,Cn1cccc1C1CCCN1CC(=O)Nc1ccc(S(=O)(=O)N2CCOCC2)cc1 (stereo unspecified)
794,7940,O=C(CCN=C1NS(=O)(=O)c2ccccc21)Nc1ccc(S(=O)(=O)N2CCCC2)cc1
316,3160,O=C(/C=C/c1n[nH]c2ccccc12)Nc1ccc(C(=O)NCCN2CCOCC2)cc1
794,7940,O=C(Nc1cccnc1)C1CCN(c2ccc(-c3ccco3)nn2)CC1
501,5010,O=C1CSc2ccc(C(=O)Nc3ccc(-c4nnc5n4CCCCC5)cc3)cc2N1
316,3160,NC(=O)CC1CCN(C(=O)c2sc3sccc3c2Cl)CC1
63.1,794,O=C(NCCCN1CCc2ccccc21)c1ccc2c(=O)n(Cc3ccccn3)cnc2c1
200,2510,CCN(C(=O)C=Cc1ccc(S(=O)(=O)N2CCc3ccccc32)cc1)C1CCS(=O)(=O)C1 (stereo unspecified)
126,1260,O=C(CCn1nnc2cc(S(=O)(=O)N3CCCC3)ccc21)N1CCN(c2ccccn2)CC1
398,3980,COc1ccc(NC(=O)c2ccc3c(=O)n(Cc4ccccn4)cnc3c2)cc1N1CCN(C)CC1
31.6,316,O=C(c1cc2ccccc2[nH]1)N1CCC2(CC(Nc3ccncn3)C2)C1 (stereo unspecified)
158,2000,O=C(/C=C/c1n[nH]c2ccccc12)N1CCN(c2cnccn2)CC1
251,3980,CN(C(=O)C[C@@H]1CCN(C(=O)C2CC2)C1)c1ccc(-c2ccc(C#N)cc2)cc1
126,1580,COc1ccc(C(=O)N2CCN(c3ccc(-n4cccn4)nn3)CC2)cc1OC

# Reference: PubChem BioAssay AID2060598 (Global Health Medicines R&D, GSK, 2025)
